In patent US20170315129A1, “CANCER CELL DETECTION METHOD USING LIVING BODY-DERIVED CELLS OF BIOLOGICAL ORIGIN” (Hirosaki University, priority 2014, published 2017):

Experiments:
[1] = test system: ascites cells obtained during an operation of a patient with ovarian cancer (serous adenocarcinoma); assay: Live-cell fluorescence imaging of cells in peritoneal washing, ovarian cancer patient (Example 1); format: cell-based, human; details: 100 μM 2-NBDLG and 20 μM 2TRLG in KRB, 5 minutes 37° C., FIG. 2B
Procedure: Immediately after the start of laparotomy for ovarian cancer (serous adenocarcinoma), the peritoneal cavity was washed with physiological saline for the purpose of collecting an ascitic fluid. A surplus portion of the resulting peritoneal washing was transferred into a 50 mL centrifuge tube. Subsequently, it was centrifuged at 1500 G for 2 minutes at room temperature, the supernatant was removed by decantation, and the pellet was dispersed by adding 2 mL of Krebs Ringer Buffer (KRB solution, see below) to obtain an ascites-cell suspension.
NaCl 129.0 mM, KCl 4.75 mM, KH2PO41.19 mM, MgSO4.7H2O 1.19 mM, CaC12.2H2O 1.0 mM, NaHCO35.02 mM, D-Glucose 5.6 mM, HEPES 10.0 mM (an adequate amount of 1M NaOH was added to adjust the pH to 7.35). […]
For fluorescence observation, observation and image acquisition were performed as follows after mounting the glass pate on a glass-slide holder dedicated for an all-in-one fluorescence microscope BZ-X700 (Keyence Corporation). […] Bright field images and fluorescence images of the target cells were taken at a high magnification of 40× or 100×. Commercially available filters for BZ-X700 were used for fluorescence detection. A GFP filter for BZ-X (green channel, OP-87763, Ex 470/40 nm, Em 525/50 nm, DM 495 nm) was used for fluorescence observation of 2-NBDLG. […]

[2] = test system: ascites cells obtained during an operation of a patient with endometrial cancer; assay: Live-cell fluorescence imaging of ascites cells, endometrial cancer patient, reactive mesothelial cells (Example 3); format: cell-based, human; details: cell population in region of interest, apparent reactive mesothelial cells on Papanicolaou staining; 100 μM 2-NBDLG and 20 μM 2TRLG; FIG. 5A
Procedure: Immediately after the start of laparotomy for endometrial cancer, the peritoneal cavity was washed with physiological saline in the same manner as in Example 1 to obtain a peritoneal washing, which was then added to a 50 mL centrifuge tube having 5 mL of the Hanks solution in advance. The resulting ascitic fluid suspension was centrifuged at 1500 G for 2 minutes at room temperature, and then the supernatant was removed with a dropper. Some of the resulting pellet was set aside for cytodiagnosis tests at the hospital's pathology department, and the rest was dispersed into 15 mL of a KRB solution in a 15 mL centrifuge tube, then again centrifuged at 1500 G for 2 minutes at room temperature, and the supernatant was removed with a dropper. The pellet primarily includes red blood cells, and a large amount of red blood cells may obscure the target cells, interfering with microscopy. […]
An ×2 fLG solution prepared as in Example 1 (2-1) in an amount of 1 mL was added and mixed, and the cells was exposed to fLG for 5 minutes in a 37° C. water bath. […] Bright field image: high sensitivity, transmitted illumination intensity 25, aperture stop 20%, exposure time 1/500 s • Green fluorescence image: high sensitivity, excitation light intensity 100%, exposure time 1/4 s • Red fluorescence image: high sensitivity, excitation light intensity 10%, exposure time 1/10 s • (Experiment Results)

## O=C[C@@H](Nc1ccc([N+](=O)[O-])c2nonc12)[C@H](O)[C@@H](O)[C@@H](O)CO [2-NBDLG, 2-[N-(7-nitrobenz-2-oxa-1,3-diazole-4-yl)amino]-2-deoxy-L-glucose]
[1]; apparent peritoneal mesothelial cells
  fluorescence from 2-NBDLG (green wavelength region): do not show fluorescence
[1]; morphologically suspected cancer cells
  fluorescence from 2-NBDLG (green wavelength region): intense fluorescence
[2]
  fluorescence from 2-NBDLG (green wavelength region): shows fluorescence
